# Results published in patent US10980805B2, “Aza-pyridone compounds and uses thereof” (Janssen BioPharma, Inc., priority 2013, dated 2021).
# Experiments:
# [1] = test system: influenza strains B/Malaysia/2506/2004 or B/Victoria/504/2000; assay: Influenza B assay (fluorescence-based influenza neuraminidase assay); type: cell-based; conditions: Influenza B virus, A549, 20 h; read-out: Potency (EC50)
# [2] = target: Full length EN PA (influenza PA endonuclease) (Influenza A virus, UniProt P15659); assay: EN PA FRET inhibition assay; type: biochemical; conditions: FRET probe, mean of a minimum of two independent experiments, read-out: Potency (IC50 class, Table 3)
# [3] = test system: Influenza strain A549_A/WSN/33 (H1N1); assay: Influenza antiviral assay (neuraminidase fluorescence readout); type: cell-based, Influenza virus; conditions: Influenza A virus, read-out: % Inhibition (EC50 class, Table 2)
# [4] = test system: Influenza strain A/Port Chalmers/1/73 (H3N2); assay: Combination studies (checker-board, MacSynergy II); type: cell-based, Influenza virus; conditions: MDCK cells, three days
# [5] = Compound 2 = Rimantadine (M2 Channel-Inhibitor)
SMILES,IC50 [2] [nM],EC50 [3] [µM],other results
CN1C[C@H](C2c3ccccc3CCc3ccccc32)n2ncc(=O)c(O)c2C1=O [Compound 7-A],< 250,< 20,EC50 [1]: < 20 µM
COCCN1C[C@H](C(c2cccc(F)c2)c2cccc(F)c2)n2ncc(=O)c(O)c2C1=O [Compound 76-A],< 250,< 20,EC50 [1]: < 20 µM
CCN1C[C@H](C(c2cccc(Cl)c2)c2cccc(Cl)c2)n2ncc(=O)c(O)c2C1=O [Compound 39-A],< 250,< 20,EC50 [1]: < 20 µM
CC(C)C(=O)Oc1c2n(ncc1=O)[C@@H](C1c3cccc(F)c3CCc3c(F)cccc31)CN(C(C)C)C2=O [Compound 114-A],< 250,< 20,"Synergy Volume ([4]; Compound 2 = Amantadine (M2 Channel-Inhibitor)): 86 μM^2%; Synergy Volume ([4]; Compound 2 = Favipiravir (T-705) (Polymerase Inhibitor)): 132 μM^2%; Synergy Volume ([4]; Compound 2 = Oseltamivir (Neuraminidase-Inhibitor)): 205 μM^2%; Synergy Volume ([4]; Compound 2 = Peramivir (Neuraminidase-Inhibitor)): 100 μM^2%; Synergy Volume ([4]; Compound 2 = Ribavirin (Polymerase Inhibitor)): 55 μM^2%; Observed Result [4, 5]: synergistic (volumes in the 25-100 range indicate synergistic behavior); Synergy Volume [4, 5]: 45 μM^2%; Synergy Volume ([4]; Compound 2 = Zanamivir (Neuraminidase-Inhibitor)): 127 μM^2%"
CN1CC(C2c3ccccc3CCc3ccccc32)n2ncc(=O)c(O)c2C1=O (stereo not drawn) [Compound 7],< 250,< 20,–
CC(C)N1C[C@H]([C@@H](c2ccccc2)c2ccccn2)n2ncc(=O)c(O)c2C1=O [Compound 132],< 250,< 20,–
CN1CC(C2c3ccccc3CCc3cccnc32)n2ncc(=O)c(O)c2C1=O (stereo not drawn) [Compound 42],< 250,< 20,–
O=C1c2c(O)c(=O)cnn2C(C2c3ccccc3CCc3ccccc32)CN1Cc1ccccc1 (stereo not drawn) [Compound 13],< 250,< 20,–
CC#Cc1ccn([C@H](c2ccccc2)[C@H]2CN(C)C(=O)c3c(O)c(=O)cnn32)n1 [Compound 115-C],< 250,< 20,–
CN1C[C@H]([C@H](c2ccccc2)n2cnc(I)c2)n2ncc(=O)c(O)c2C1=O [Compound 107-B],< 250,20 to 100,–
CC(C)N1C[C@H](C(c2ccccc2)c2ccccc2)n2ncc(=O)c(OCOC(=O)C(C)(C)N)c2C1=O [Compound 113-A],< 250,< 20,–
C#Cc1ccn([C@H](c2ccccc2)[C@H]2CN(C)C(=O)c3c(O)c(=O)cnn32)n1 [Compound 109-C],< 250,< 20,–
C[C@@H](N1CC(C(c2ccccc2)c2ccccc2)n2ncc(=O)c(O)c2C1=O)C(F)(F)F (stereo partly drawn) [Compound 35-B],250 to 1000,< 20,–
CC(C)N1C[C@H](C(c2ccccc2)c2ccccc2)n2ncc(=O)c(OC(=O)C3CCCC3)c2C1=O [Compound 119],< 250,< 20,–
CN1C[C@@H]([C@@H](c2ccccc2)c2cccc(OC3CC3)c2)n2ncc(=O)c(O)c2C1=O [Compound 105-D],≥ 1000,20 to 100,–
"CC(C)N1C[C@H](C(c2ccccc2)c2cccc(Cl)c2)n2ncc(=O)c(O)c2C1=O (single isomer, unassigned) [Compound 73-A]",< 250,< 20,–
CN1CC(C(c2ccccc2)c2ccc(Cl)cc2)n2ncc(=O)c(O)c2C1=O (stereo not drawn) [Compound 32],< 250,< 20,–
CCN1C[C@@H](C(c2cccc(C)c2)c2cccc(C)c2)n2ncc(=O)c(O)c2C1=O [Compound 36-B],≥ 1000,< 20,–
CN1C[C@H]([C@@H](c2ccccc2)c2ccccn2)n2ncc(=O)c(O)c2C1=O [Compound 128],< 250,< 20,–
CC(C)C(=O)Oc1c2n(ncc1=O)[C@H](C1c3cccc(F)c3CCc3c(F)cccc31)CN(C(C)C)C2=O [Compound 114-B],≥ 1000,< 20,–
C#Cc1ccn([C@H](c2ccccc2)[C@@H]2CN(C)C(=O)c3c(O)c(=O)cnn32)n1 [Compound 109-A],< 250,< 20,–
CN1C[C@@H](C2c3ccccc3CCc3ccccc32)n2ncc(=O)c(O)c2C1=O [Compound 7-B],< 250,< 20,–
CC(C)N1CC(C2c3ccccc3CSc3ccccc32)n2ncc(=O)c(O)c2C1=O (stereo not drawn) [Compound 121],< 250,< 20,–
O=C1c2c(O)c(=O)cnn2[C@@H](C2c3ccccc3CCc3ccccc32)CN1Cc1ccccc1 [Compound 13-A],< 250,< 20,–

SMILES,IC50 [2] [nM],EC50 [3] [µM],other results
CC#Cc1cn(C(c2ccccc2)C2CN(C)C(=O)c3c(O)c(=O)cnn32)cn1 (stereo not drawn) [Compound 111],250 to 1000,≥ 100,–
CN1C[C@@H](C(c2ccccc2)c2ccccc2)n2ncc(=O)c(O)c2C1=O [Compound 1-B],250 to 1000,< 20,–
CCN1C[C@@H](C(c2ccccc2)c2ccccc2)n2ncc(=O)c(O)c2C1=O [Compound 5-B],250 to 1000,< 20,–
CCN1C[C@H]([C@H](c2ccccc2)c2cccc(Cl)c2)n2ncc(=O)c(O)c2C1=O [Compound 12-B],< 250,< 20,–
CC(C)N1C[C@@H](C(c2ccccc2)c2ccccc2)n2ncc(=O)c(OCOC(=O)C(C)(C)N)c2C1=O [Compound 113-B],250 to 1000,20 to 100,–
O=C1c2c(O)c(=O)cnn2[C@H](C(c2ccccc2)c2ccccc2)CN1C1CCOCC1 [Compound 63-B],250 to 1000,< 20,–
CN1CC(C(c2cccc(Cl)c2)c2ccccc2F)n2ncc(=O)c(O)c2C1=O (stereo not drawn) [Compound 62],< 250,< 20,–
CN1C[C@H]([C@@H](c2ccccc2)n2cnc(I)c2)n2ncc(=O)c(O)c2C1=O [Compound 107-A],< 250,20 to 100,–
CN1C[C@@H]([C@@H](c2ccccc2)c2ccccn2)n2ncc(=O)c(O)c2C1=O [Compound 131],< 250,< 20,–
CC(C)N1CC(C2c3cccc(F)c3CCc3c(F)cccc32)n2ncc(=O)c(O)c2C1=O (stereo not drawn) [Compound 51],< 250,< 20,–
Cc1cccc(C(c2ccccc2)C2CN(C)C(=O)c3c(O)c(=O)cnn32)c1 (stereo not drawn) [Compound 27],< 250,< 20,–
CC(C)N1C[C@@H]([C@@H](c2ccccc2)c2ccccn2)n2ncc(=O)c(O)c2C1=O [Compound 138],< 250,< 20,–
C[C@H](N1CC(C(c2ccccc2)c2ccccc2)n2ncc(=O)c(O)c2C1=O)C(F)(F)F (stereo partly drawn) [Compound 35-A],< 250,< 20,–
CC(C)CC(=O)Oc1c2n(ncc1=O)[C@@H](C(c1ccccc1)c1ccccc1)CN(C(C)C)C2=O [Compound 118],250 to 1000,< 20,–
CN1CC(C(c2cccc(C#N)c2)c2cccc(C#N)c2)n2ncc(=O)c(O)c2C1=O (stereo not drawn) [Compound 102],< 250,20 to 100,–
CN1C[C@@H](C2c3ccccc3CCc3cccnc32)n2ncc(=O)c(O)c2C1=O (stereo partly drawn) [Compound 42-B],250 to 1000,20 to 100,–
CCN1C[C@H](C(c2ccccc2)c2ccccc2)n2ncc(=O)c(O)c2C1=O [Compound 5-A],< 250,< 20,–
CC(C)N1C[C@@H](C(c2cccc(Cl)c2)c2cccc(Cl)c2)n2ncc(=O)c(O)c2C1=O [Compound 68-B],250 to 1000,< 20,–
CN1CC(C(c2cccc(Cl)c2)c2cccc(Cl)c2)n2ncc(=O)c(O)c2C1=O (stereo not drawn) [Compound 28],< 250,< 20,–
CCN1CC(C(c2cccc(C)c2)c2cccc(C)c2)n2ncc(=O)c(O)c2C1=O (stereo not drawn) [Compound 36],< 250,< 20,–
CCN1CC(C(c2cccc(Cl)c2)c2cccc(Cl)c2)n2ncc(=O)c(O)c2C1=O (stereo not drawn) [Compound 39],< 250,< 20,–
CCCN1C[C@H](C(c2cccc(Cl)c2)c2cccc(Cl)c2)n2ncc(=O)c(O)c2C1=O [Compound 84-A],< 250,< 20,–
CC(C)CN1C[C@H](C(c2cccc(F)c2)c2cccc(F)c2)n2ncc(=O)c(O)c2C1=O [Compound 86-A],< 250,< 20,–
